Holding throughout (assay type): cell-based
Experiment [1] deals with human 5-HT2B (Homo sapiens, UniProt P41595). Kind of experiment: FLIPR calcium flux assay, 5-HT2B. The conditions noted are these: for Emax 5-HT2B: HEK-293 cells stably expressing human receptor.
For experiment [2], the target named is human 5-HT2A (Homo sapiens, UniProt P28223). The experiment is described as follows: FLIPR calcium flux assay, 5-HT2A.
Experiment [3] concerns the target T1, human 5-HT2C-INI (Homo sapiens, UniProt P28335).
T1 sequence (P28335 33-458): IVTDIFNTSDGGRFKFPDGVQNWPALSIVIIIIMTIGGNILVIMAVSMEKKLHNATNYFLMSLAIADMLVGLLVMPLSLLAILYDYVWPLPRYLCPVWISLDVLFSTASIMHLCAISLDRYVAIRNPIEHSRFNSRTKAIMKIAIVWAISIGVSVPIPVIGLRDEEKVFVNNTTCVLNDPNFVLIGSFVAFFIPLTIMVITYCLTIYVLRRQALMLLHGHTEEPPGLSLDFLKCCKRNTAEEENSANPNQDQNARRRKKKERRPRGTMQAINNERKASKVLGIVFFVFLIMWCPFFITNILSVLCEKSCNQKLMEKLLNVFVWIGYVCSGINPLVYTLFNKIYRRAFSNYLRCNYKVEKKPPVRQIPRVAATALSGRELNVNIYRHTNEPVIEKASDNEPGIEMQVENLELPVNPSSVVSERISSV
Kind of experiment: FLIPR calcium flux assay, 5-HT2C. Conditions: for EC50: read-out: EC50, nM 5-HT2C, FLIPR, HEK-293 cells stably expressing human receptor.

Where [4] appears, read: EC50, nM 5-HT2B, FLIPR, HEK-293 cells, NA = no activity (Emax < 15%) at 10 μM.

Structures can show the parent of a compound that is named as a salt. Where two headings read alike, the source gives them in different places. Some results are limits rather than exact numbers.

Chain of human 5-HT2A (P28223 whole entry): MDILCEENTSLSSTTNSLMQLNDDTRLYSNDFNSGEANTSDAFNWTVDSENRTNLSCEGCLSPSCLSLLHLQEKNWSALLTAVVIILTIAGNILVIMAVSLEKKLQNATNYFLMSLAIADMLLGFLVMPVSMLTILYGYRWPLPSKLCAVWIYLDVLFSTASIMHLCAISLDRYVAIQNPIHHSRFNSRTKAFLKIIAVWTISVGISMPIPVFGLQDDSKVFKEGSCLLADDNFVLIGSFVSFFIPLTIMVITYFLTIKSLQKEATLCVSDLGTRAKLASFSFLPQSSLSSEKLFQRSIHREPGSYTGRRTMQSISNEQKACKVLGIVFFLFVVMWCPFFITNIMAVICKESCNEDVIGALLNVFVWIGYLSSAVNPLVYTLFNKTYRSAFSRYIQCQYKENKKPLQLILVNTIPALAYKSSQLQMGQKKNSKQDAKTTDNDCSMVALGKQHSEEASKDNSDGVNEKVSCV
Chain of human 5-HT2B (P41595 whole entry): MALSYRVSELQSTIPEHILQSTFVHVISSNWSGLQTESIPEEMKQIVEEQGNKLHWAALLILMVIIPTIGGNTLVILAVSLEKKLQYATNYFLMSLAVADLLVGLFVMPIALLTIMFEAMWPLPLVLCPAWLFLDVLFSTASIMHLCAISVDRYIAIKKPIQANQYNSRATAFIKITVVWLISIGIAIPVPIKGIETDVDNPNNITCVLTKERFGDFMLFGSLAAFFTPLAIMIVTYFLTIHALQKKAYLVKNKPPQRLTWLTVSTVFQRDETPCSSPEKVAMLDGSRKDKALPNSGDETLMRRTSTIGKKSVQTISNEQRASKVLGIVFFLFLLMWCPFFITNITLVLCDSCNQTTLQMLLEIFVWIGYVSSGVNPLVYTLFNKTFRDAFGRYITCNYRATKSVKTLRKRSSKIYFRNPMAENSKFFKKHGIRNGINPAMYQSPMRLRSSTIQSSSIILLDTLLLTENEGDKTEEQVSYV

On to `Cl.NCC1CC1c1c(OCCF)ccc(Cl)c1F` (single isomer, unassigned; (-)) [(–)-21d, (–)-[2-[3-Chloro-2-fluoro-6-(2-fluoroethoxy)phenyl]cyclopropyl]methanamine Hydrochloride], for which the “EC50, nM 5-HT2B” value in experiment [1] is listed as “NA (no activity (Emax < 15%) at 10 μM)”. Besides, the “EC50, nM 5-HT2A” value in experiment [2] was “NA (no activity (Emax < 15%) at 10 μM)”. Take `NCC1CC1c1c(OCCF)ccc(F)c1F` (single isomer, unassigned; (+)) [(+)-21b, (+)-[2-[2,3-Difluoro-6-(2-fluoroethoxy)phenyl]cyclopropyl]methanamine Hydrochloride]: the half-maximal effective concentration (EC50) in experiment [3] stood at 25 nM. For `C=CCOc1ccc(Cl)c(F)c1C1CC1CN.Cl` (single isomer, unassigned; (+)) [(+)-22d, (+)-[2-[6-(Allyloxy)-3-chloro-2-fluorophenyl]cyclopropyl]methanamine Hydrochloride], in experiment [3], the EC50 was determined as 116 nM. The “EC50, nM 5-HT2A” value in experiment [2] is on record as “NA (no activity (Emax < 15%) at 10 μM)”.

Consider `C=CCOc1ccc(F)c(Cl)c1C1CC1CN.Cl` (single isomer, unassigned; (-)) [(–)-22g, (–)-[2-[6-(Allyloxy)-2-chloro-3-fluorophenyl]cyclopropyl]methanamine Hydrochloride], for which, in experiment [2], the “EC50, nM 5-HT2A” value is on record as “NA (no activity (Emax < 15%) at 10 μM)”. In the case of `C=CCOc1cc(Cl)c(Cl)cc1C1CC1CN.Cl` (single isomer, unassigned; (-)) [(–)-22e, (–)-[2-[2-(Allyloxy)-4,5-dichlorophenyl]cyclopropyl]methanamine Hydrochloride], the “EC50, nM 5-HT2B” value in experiment [1] is given as “NA (no activity (Emax < 15%) at 10 μM)”. Further, the “EC50, nM 5-HT2A” value in experiment [2] is reported as “NA (no activity (Emax < 15%) at 10 μM)”. As to `Cl.NCC1CC1c1c(OCCF)ccc(F)c1Cl` (single isomer, unassigned; (-)) [(–)-21g, (–)-[2-[2-Chloro-3-fluoro-6-(2-fluoroethoxy)phenyl]cyclopropyl]methanamine Hydrochloride], the “Emax 5-HT2B” value in experiment [1] (FLIPR) turned out to be 29%. Moreover, the “EC50, nM 5-HT2A” value in experiment [2] is recorded as “NA (no activity (Emax < 15%) at 10 μM)”.

In the case of `Cl.NCC1CC1c1cc(Cl)c(F)cc1OCCF` (single isomer, unassigned; (-)) [(–)-21c, (–)-[2-[5-Chloro-4-fluoro-2-(2-fluoroethoxy)phenyl]cyclopropyl]methanamine Hydrochloride], the “EC50, nM 5-HT2A” value in experiment [2] is on record as “NA (no activity (Emax < 15%) at 10 μM)”.

For `C=CCOc1ccc(F)c(F)c1C1CC1CN.Cl` (single isomer, unassigned; (-)) [(–)-22b, (–)-[2-[6-(Allyloxy)-2,3-difluorophenyl]cyclopropyl]methanamine hydrochloride], the “EC50, nM 5-HT2A” value in experiment [2] is listed as “NA (no activity (Emax < 15%) at 10 μM)”. With `Cl.NCC1CC1c1c(OCCF)ccc(Cl)c1Cl` (single isomer, unassigned; (+)) [(+)-21f, (+)-[2-[2,3-Dichloro-6-(2-fluoroethoxy)phenyl]cyclopropyl]methanamine Hydrochloride], the “Emax 5-HT2B” value in experiment [1] (FLIPR) stood at 99%.

With `COc1ccc(Cl)c(Cl)c1C1CC1CN.Cl` (single isomer, unassigned; (-)) [(–)-20f, (–)-[2-(2,3-Dichloro-6-methoxyphenyl)cyclopropyl]methanamine Hydrochloride], in experiment [1] (5-HT2C vs 5-HT2B), the “selectivity over 5-HT2B” value is listed as 50 fold.

As for `COc1ccc(Cl)c(Cl)c1C1CC1CN.Cl` (single isomer, unassigned; (+)) [(+)-20f, (+)-[2-(2,3-Dichloro-6-methoxyphenyl)cyclopropyl]methanamine Hydrochloride], the “fold weaker at 5-HT2C than its enantiomer” value in experiment [3] (compared to the (–)-enantiomer) is 20 fold. The “Emax 5-HT2B” value in experiment [1] (FLIPR) stood at 46%. For the same compound, in experiment [2] (FLIPR, HEK-293 cells stably expressing human receptor), the “Emax 5-HT2A” value is reported as 76%. `C=CCOc1cc(Cl)c(Cl)cc1C1CC1CN` (single isomer, unassigned; (+)) [(+)-22e, (+)-[2-[2-(Allyloxy)-4,5-dichlorophenyl]cyclopropyl]methanamine Hydrochloride]: the concentration for a half-maximal effect (EC50) in experiment [3] came to 61 nM. Turning to `NCC1CC1c1cc(Cl)c(F)cc1OCCF` (single isomer, unassigned; (+)) [(+)-21c, (+)-[2-[5-Chloro-4-fluoro-2-(2-fluoroethoxy)phenyl]cyclopropyl]methanamine Hydrochloride], the EC50 in experiment [3] is 24 nM; in experiment [1] (read-out: EC50, nM 5-HT2B), 506 nM.

As to `C=CCOc1ccc(Cl)c(F)c1C1CC1CN.Cl` (single isomer, unassigned; (-)) [(–)-22d, (–)-[2-[6-(Allyloxy)-3-chloro-2-fluorophenyl]cyclopropyl]methanamine Hydrochloride], in experiment [1], the “EC50, nM 5-HT2B” value is listed as “NA (no activity (Emax < 15%) at 10 μM)”. `C=CCOc1ccc(Cl)c(Cl)c1C1CC1CN.Cl` (single isomer, unassigned; (+)) [(+)-22f, (+)-[2-[6-(Allyloxy)-2,3-dichlorophenyl]cyclopropyl]methanamine Hydrochloride]: the “EC50, nM 5-HT2B” value in experiment [1] is given as “NA (no activity (Emax < 15%) at 10 μM)”. In addition, the “EC50, nM 5-HT2A” value in experiment [2] is “NA (no activity (Emax < 15%) at 10 μM)”. As for `COc1ccc(F)c(Cl)c1C1CC1CN.Cl` (single isomer, unassigned; (+)) [(+)-20g, (+)-[2-(2-Chloro-3-fluoro-6-methoxyphenyl)cyclopropyl]methanamine Hydrochloride], the “Emax 5-HT2B” value in experiment [1] (FLIPR) came to 60%. Consider `Cl.NCC1CC1c1c(OCCF)ccc(Cl)c1F` (single isomer, unassigned; (+)) [(+)-21d, (+)-[2-[3-Chloro-2-fluoro-6-(2-fluoroethoxy)phenyl]cyclopropyl]methanamine Hydrochloride], for which, in experiment [3], the concentration for a half-maximal effect (EC50) was 71 nM. Moreover, in experiment [1], the “EC50, nM 5-HT2B” value is “NA (no activity (Emax < 15%) at 10 μM)”. For `Cl.NCC1CC1c1c(OCCF)ccc(Cl)c1Cl` (single isomer, unassigned; (-)) [(–)-21f, (–)-[2-[2,3-Dichloro-6-(2-fluoroethoxy)phenyl]cyclopropyl]methanamine Hydrochloride], the 50% effective concentration (EC50) in experiment [1] (setting [4]) was above 10000 nM. Further, the “Emax 5-HT2B” value in experiment [1] (FLIPR) was 62%. Moreover, the “EC50, nM 5-HT2A” value in experiment [2] was “NA (no activity (Emax < 15%) at 10 μM)”. `C=CCOc1ccc(F)c(Cl)c1C1CC1CN.Cl` (single isomer, unassigned; (+)) [(+)-22g, (+)-[2-[6-(Allyloxy)-2-chloro-3-fluorophenyl]cyclopropyl]methanamine Hydrochloride]: the “EC50, nM 5-HT2A” value in experiment [2] was “NA (no activity (Emax < 15%) at 10 μM)”. For the compound `NCC1CC1c1c(OCCF)ccc(F)c1Cl` (single isomer, unassigned; (+)) [(+)-21g, (+)-[2-[2-Chloro-3-fluoro-6-(2-fluoroethoxy)phenyl]cyclopropyl]methanamine Hydrochloride], the EC50 in experiment [3] was found to be 49 nM. Turning to `C=CCOc1cc(F)c(Cl)cc1C1CC1CN.Cl` (single isomer, unassigned; (+)) [(+)-22c, (+)-[2-[2-(Allyloxy)-5-chloro-4-fluorophenyl]cyclopropyl]methanamine Hydrochloride], the half-maximal effective concentration (EC50) in experiment [3] amounted to 42 nM. Also, in experiment [1] (FLIPR), the “Emax 5-HT2B” value is listed as 44%.

As for `C=CCOc1ccc(F)c(F)c1C1CC1CN.Cl` (single isomer, unassigned; (+)) [(+)-22b, (+)-[2-[6-(Allyloxy)-2,3-difluorophenyl]cyclopropyl]methanamine hydrochloride], the EC50 was 36 nM in experiment [3] and 3340 nM in experiment [1] (read-out: EC50, nM 5-HT2B). In experiment [2], the “EC50, nM 5-HT2A” value is “NA (no activity (Emax < 15%) at 10 μM)”. With `Cl.NCC1CC1c1cc(F)c(F)cc1OCCF` (single isomer, unassigned; (-)) [(–)-21a, (–)-[2-[4,5-Difluoro-2-(2-fluoroethoxy)phenyl]cyclopropyl]methanamine Hydrochloride], the “EC50, nM 5-HT2B” value in experiment [1] is given as “NA (no activity (Emax < 15%) at 10 μM)”. Further, the “EC50, nM 5-HT2A” value in experiment [2] is on record as “NA (no activity (Emax < 15%) at 10 μM)”. For the compound `Cl.NCC1CC1c1cc(Cl)c(Cl)cc1OCCF` (single isomer, unassigned; (-)) [(–)-21e, (–)-[2-[4,5-Dichloro-2-(2-fluoroethoxy)phenyl]cyclopropyl]methanamine Hydrochloride], the “EC50, nM 5-HT2B” value in experiment [1] is recorded as “NA (no activity (Emax < 15%) at 10 μM)”. Also, the “EC50, nM 5-HT2A” value in experiment [2] was “NA (no activity (Emax < 15%) at 10 μM)”. With `NCC1CC1c1cc(Cl)c(Cl)cc1OCCF` (single isomer, unassigned; (+)) [(+)-21e, (+)-[2-[4,5-Dichloro-2-(2-fluoroethoxy)phenyl]cyclopropyl]methanamine Hydrochloride], the results for the EC50 in experiment [3] and in experiment [1] (setting [4]) were 18 nM and above 10000 nM, respectively. With `NCC1CC1c1cc(F)c(F)cc1OCCF` (single isomer, unassigned; (+)) [(+)-21a, (+)-[2-[4,5-Difluoro-2-(2-fluoroethoxy)phenyl]cyclopropyl]methanamine Hydrochloride], in experiment [3], the half-maximal effective concentration (EC50) is 7.3 nM.

With `Cl.NCC1CC1c1c(OCCF)ccc(F)c1F` (single isomer, unassigned; (-)) [(–)-21b, (–)-[2-[2,3-Difluoro-6-(2-fluoroethoxy)phenyl]cyclopropyl]methanamine Hydrochloride], the “EC50, nM 5-HT2A” value in experiment [2] is “NA (no activity (Emax < 15%) at 10 μM)”. `C=CCOc1cc(F)c(Cl)cc1C1CC1CN.Cl` (single isomer, unassigned; (-)) [(–)-22c, (–)-[2-[2-(Allyloxy)-5-chloro-4-fluorophenyl]cyclopropyl]methanamine Hydrochloride]: in experiment [2], the “EC50, nM 5-HT2A” value is recorded as “NA (no activity (Emax < 15%) at 10 μM)”.

Values taken from publication PMC8317212 (Journal of medicinal chemistry, 2016).
